The results in this text go back to ChEMBL document CHEMBL1201862, “PubChem BioAssay data set” (2004).

SMILES strings stand for the structures. The source made the active and inactive calls.

For test [1], the target named is Tyrosine-protein kinase receptor UFO (Homo sapiens, UniProt P30530). Format: functional.
For test [2], the target named is Misshapen-like kinase 1 (Homo sapiens, UniProt Q8N4C8). It counts as functional.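 Further: kinome panel screen with MINK as the panel member.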
Test [3] has as its target Tyrosine-protein kinase Blk (Homo sapiens, UniProt P51451). Format: functional.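 Further: obtained as one member of a kinome-wide kinase assay panel.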
In test [4] the target is Mitogen-activated protein kinase kinase kinase 20 (Homo sapiens, UniProt Q9NYL2). It counts as functional.
Test [5] concerns the target Serine/threonine-protein kinase PLK1 (Homo sapiens, UniProt P53350). Format: functional.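 Further: PLK1 measured as one member of a kinome-wide profiling panel.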
For test [6], the target named is Proto-oncogene tyrosine-protein kinase Src (Homo sapiens, UniProt P12931). It counts as functional.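 Further: SRC entry within a kinome-wide kinase profiling panel.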
The target in test [7] is Homeodomain-interacting protein kinase 4 (Homo sapiens, UniProt Q8NE63). It counts as functional.
Test [8] concerns the target Dual specificity protein kinase CLK2 (Homo sapiens, UniProt P49760). Format: functional.
Test [9] addresses Non-receptor tyrosine-protein kinase TYK2 (Homo sapiens, UniProt P29597). Format: functional.
Test [10] concerns the target Glycogen synthase kinase-3 alpha (Homo sapiens, UniProt P49840). It counts as functional.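 Further: GSK3A result taken from a broad kinome-wide kinase panel.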
Test [11] addresses Glycogen synthase kinase-3 beta (Homo sapiens, UniProt P49841). Format: functional.
Test [12] deals with 3-phosphoinositide-dependent protein kinase 1 (Homo sapiens, UniProt O15530). Format: functional.
The target of test [13] is Vascular endothelial growth factor receptor 3 (Homo sapiens, UniProt P35916). Format: functional.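 Further: value from a kinome-wide profiling panel, with FLT4 as the panel member.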
In test [14] the target is Receptor-type tyrosine-protein kinase FLT3 (Homo sapiens, UniProt P36888). It counts as functional.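 Further: FLT3 was tested as one member of a kinome-wide kinase panel.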
Test [15] addresses Glucose-6-phosphate 1-dehydrogenase (Homo sapiens, UniProt P11413). In words: inhibition of Homo sapiens G6PD, dose series – biochemical, fluorescence, selectivity assay for P. falciparum G6PD inhibitor project, dose response (AID 504792). It counts as functional.
In test [16] the target is T1, Hexokinase (Trypanosoma brucei, UniProt Q38C41).
T1 sequence (Q38C41 whole entry): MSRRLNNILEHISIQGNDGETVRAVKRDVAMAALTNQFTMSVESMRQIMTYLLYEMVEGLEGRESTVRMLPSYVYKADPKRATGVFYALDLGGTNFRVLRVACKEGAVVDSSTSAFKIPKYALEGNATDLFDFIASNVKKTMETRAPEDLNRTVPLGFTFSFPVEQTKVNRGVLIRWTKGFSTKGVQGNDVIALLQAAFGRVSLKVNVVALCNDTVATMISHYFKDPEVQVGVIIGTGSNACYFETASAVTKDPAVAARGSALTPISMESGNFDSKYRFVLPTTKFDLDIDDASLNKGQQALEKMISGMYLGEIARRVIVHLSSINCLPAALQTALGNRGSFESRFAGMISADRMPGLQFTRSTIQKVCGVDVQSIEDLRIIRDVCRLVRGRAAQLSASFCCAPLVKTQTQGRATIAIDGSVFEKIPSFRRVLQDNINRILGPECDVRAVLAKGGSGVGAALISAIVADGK
Nature of the test: Confirmation assay for inhibitors of Trypanosoma brucei hexokinase 1-Analogue-first series. [Related pubchem assays (depositor defined):AID1430, AID1632, AID2516, AID2560, AID2579, AID2600, AID449725, AID492951]. Format: functional.

Test [17] addresses Cytochrome P450 2C9 (Homo sapiens, UniProt P11712).
Test [18] is described as follows: IC50 of Artemis nuclease activity blockers – biochemical, fluorescence intensity, dose response (AID 720701).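 Further: Artemis endonuclease enzyme.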 It counts as functional.
The target in test [19] is NACHT, LRR and PYD domains-containing protein 3 (Homo sapiens, UniProt Q96P20). Nature of the test: NALP3 inhibitors in yeast, dose response, luminescent (AID 488799). Format: functional.
Test [20] is described as follows: NIH-3T3 fibroblast cytotoxicity, dose response, cytotoxicity control, cell-based, fluorescence, Alamar Blue, secondary assay (AID 2327).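 Further: NIH-3T3 mouse fibroblasts cultured with fluconazole at 8 µg/mL.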 Format: functional. A general note: Resazurin is reduced to fluorescent resorufin, in cell work by metabolically active cells.

Tyrosine-protein kinase receptor UFO, sequence (P30530 whole entry): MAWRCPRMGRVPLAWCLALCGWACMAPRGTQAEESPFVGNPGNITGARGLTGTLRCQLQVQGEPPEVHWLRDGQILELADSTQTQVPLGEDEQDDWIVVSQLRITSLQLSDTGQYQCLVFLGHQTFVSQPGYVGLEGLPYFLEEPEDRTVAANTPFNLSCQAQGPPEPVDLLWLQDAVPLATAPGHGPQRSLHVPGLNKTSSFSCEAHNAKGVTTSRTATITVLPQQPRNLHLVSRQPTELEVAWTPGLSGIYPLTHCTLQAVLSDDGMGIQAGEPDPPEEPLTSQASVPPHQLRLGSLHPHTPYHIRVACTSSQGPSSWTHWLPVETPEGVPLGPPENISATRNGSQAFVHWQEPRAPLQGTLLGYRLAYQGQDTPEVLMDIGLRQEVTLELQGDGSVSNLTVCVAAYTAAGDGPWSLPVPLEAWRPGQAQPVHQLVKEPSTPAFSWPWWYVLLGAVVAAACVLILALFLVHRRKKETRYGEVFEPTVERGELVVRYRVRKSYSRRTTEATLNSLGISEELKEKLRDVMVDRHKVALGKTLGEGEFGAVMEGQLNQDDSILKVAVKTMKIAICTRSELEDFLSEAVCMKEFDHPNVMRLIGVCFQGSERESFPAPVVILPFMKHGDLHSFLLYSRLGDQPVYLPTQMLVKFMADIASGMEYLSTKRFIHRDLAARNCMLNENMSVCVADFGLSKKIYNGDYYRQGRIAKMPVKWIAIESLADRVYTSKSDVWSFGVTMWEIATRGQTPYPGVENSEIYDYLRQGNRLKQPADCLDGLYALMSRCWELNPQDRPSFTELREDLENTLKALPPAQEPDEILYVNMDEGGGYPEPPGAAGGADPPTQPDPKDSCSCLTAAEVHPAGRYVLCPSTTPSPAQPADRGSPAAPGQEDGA
Tyrosine-protein kinase Blk, sequence (P51451 whole entry): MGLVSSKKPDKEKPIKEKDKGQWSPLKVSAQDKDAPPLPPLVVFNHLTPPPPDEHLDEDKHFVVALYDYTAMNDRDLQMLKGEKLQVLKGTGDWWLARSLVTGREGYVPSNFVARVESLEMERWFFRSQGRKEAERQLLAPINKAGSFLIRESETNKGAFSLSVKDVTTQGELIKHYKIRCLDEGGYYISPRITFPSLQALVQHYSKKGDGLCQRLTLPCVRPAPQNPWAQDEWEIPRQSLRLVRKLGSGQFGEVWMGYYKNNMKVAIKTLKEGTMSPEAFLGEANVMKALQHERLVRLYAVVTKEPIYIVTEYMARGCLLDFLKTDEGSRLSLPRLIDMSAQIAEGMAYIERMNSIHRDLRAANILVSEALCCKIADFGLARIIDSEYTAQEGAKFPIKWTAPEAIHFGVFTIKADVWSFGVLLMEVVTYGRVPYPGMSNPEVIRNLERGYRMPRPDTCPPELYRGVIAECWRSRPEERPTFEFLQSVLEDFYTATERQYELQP
3-phosphoinositide-dependent protein kinase 1, sequence (O15530 whole entry): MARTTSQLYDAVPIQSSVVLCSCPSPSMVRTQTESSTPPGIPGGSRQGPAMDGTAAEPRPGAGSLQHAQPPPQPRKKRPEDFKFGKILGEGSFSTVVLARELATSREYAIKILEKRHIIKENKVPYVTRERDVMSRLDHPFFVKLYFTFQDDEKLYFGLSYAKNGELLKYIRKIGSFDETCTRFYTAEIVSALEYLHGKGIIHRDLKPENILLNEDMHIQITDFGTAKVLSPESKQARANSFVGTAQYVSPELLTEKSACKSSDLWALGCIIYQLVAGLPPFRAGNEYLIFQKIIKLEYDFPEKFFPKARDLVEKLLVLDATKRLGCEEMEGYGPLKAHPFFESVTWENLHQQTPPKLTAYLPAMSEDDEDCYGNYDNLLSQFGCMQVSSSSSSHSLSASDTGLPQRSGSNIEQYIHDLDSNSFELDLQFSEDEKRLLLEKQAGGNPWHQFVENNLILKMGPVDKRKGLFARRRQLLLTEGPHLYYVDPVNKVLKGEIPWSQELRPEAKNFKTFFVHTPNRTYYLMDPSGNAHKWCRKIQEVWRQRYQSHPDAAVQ
Glycogen synthase kinase-3 beta, sequence (P49841 whole entry): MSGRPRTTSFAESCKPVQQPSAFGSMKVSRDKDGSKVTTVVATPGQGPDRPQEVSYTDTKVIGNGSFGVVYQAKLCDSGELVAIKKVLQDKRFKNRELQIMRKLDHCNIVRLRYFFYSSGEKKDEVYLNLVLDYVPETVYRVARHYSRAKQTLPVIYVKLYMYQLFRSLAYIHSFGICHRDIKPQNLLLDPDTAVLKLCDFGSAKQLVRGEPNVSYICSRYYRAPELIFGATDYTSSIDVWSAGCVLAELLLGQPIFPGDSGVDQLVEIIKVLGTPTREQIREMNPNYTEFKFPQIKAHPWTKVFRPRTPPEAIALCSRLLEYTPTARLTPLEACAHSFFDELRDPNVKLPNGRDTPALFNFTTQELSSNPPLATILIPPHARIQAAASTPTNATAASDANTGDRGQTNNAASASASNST
Vascular endothelial growth factor receptor 3, sequence (P35916 whole entry): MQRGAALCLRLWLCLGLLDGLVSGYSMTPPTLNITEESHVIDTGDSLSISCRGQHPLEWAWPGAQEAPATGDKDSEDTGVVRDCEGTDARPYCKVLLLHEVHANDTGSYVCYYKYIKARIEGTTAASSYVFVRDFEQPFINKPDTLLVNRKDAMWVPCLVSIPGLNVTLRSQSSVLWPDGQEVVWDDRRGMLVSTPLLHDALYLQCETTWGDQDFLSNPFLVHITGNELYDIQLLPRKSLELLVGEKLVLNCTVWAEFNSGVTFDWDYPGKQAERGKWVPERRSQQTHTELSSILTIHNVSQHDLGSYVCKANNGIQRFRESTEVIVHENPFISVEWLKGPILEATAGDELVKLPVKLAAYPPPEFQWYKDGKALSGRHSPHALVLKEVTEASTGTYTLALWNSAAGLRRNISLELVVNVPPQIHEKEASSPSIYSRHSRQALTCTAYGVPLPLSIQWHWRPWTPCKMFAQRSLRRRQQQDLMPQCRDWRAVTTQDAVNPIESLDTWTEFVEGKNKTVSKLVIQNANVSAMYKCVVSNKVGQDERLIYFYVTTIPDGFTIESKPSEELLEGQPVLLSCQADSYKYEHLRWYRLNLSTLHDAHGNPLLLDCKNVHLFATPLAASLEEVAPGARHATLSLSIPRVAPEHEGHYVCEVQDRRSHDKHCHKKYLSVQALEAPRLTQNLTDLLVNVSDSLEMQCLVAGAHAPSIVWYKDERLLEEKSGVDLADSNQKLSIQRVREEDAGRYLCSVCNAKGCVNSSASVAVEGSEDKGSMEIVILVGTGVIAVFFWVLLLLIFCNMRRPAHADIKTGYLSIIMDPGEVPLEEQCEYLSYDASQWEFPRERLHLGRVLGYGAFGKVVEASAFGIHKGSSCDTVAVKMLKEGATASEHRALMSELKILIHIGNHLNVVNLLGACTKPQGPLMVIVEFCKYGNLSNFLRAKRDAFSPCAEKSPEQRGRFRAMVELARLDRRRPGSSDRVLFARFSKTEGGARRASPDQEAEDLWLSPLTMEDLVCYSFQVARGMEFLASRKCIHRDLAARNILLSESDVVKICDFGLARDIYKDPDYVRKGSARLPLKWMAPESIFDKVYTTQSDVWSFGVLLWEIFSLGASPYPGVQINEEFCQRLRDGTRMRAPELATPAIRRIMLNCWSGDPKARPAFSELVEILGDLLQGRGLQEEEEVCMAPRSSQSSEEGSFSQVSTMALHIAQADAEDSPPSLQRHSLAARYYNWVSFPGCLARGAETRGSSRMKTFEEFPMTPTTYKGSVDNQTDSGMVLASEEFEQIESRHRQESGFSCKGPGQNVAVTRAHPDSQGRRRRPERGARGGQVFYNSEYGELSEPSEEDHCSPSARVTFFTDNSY
Cytochrome P450 2C9, sequence (P11712 whole entry): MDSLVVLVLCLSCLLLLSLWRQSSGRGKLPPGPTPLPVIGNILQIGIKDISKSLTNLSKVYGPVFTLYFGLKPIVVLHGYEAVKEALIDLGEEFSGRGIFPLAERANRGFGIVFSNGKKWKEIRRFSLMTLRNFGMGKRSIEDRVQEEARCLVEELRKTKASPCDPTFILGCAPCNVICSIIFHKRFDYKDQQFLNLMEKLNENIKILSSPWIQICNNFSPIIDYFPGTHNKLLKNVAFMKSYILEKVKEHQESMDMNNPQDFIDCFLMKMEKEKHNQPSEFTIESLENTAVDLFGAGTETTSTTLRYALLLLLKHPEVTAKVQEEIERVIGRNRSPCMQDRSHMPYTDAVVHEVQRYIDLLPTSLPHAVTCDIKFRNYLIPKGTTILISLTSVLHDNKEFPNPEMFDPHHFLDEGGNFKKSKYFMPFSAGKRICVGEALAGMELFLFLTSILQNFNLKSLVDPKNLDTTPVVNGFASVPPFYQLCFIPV
Dual specificity protein kinase CLK2, sequence (P49760 whole entry): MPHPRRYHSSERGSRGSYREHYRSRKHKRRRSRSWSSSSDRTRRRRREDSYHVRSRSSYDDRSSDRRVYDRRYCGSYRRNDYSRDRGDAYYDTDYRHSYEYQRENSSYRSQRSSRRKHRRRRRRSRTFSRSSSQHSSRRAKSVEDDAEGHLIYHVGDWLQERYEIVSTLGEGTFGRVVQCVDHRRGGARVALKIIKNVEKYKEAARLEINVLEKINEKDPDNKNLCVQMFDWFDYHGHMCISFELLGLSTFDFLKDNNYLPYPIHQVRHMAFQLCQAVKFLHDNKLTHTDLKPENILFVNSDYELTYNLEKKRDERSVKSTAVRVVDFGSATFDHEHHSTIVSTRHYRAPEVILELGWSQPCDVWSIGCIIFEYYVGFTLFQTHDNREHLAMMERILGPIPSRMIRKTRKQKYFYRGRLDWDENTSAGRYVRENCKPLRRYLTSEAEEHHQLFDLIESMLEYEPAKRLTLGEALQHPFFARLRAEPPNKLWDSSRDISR

For orientation: Ki means the dissociation constant of the complex between target and ligand, obtained from inhibition or displacement. With `Cc1cccc(NC(=O)Nc2ccc3c(c2)CCc2sc4ncnc(N)c4c2-3)c1`, the inhibition constant Ki in [1] is 15.8 nM (active); in [2], > 7.94 µM (inactive); in [3], 126 nM (active); in test [4], 3.16 µM (active); in [5] it was > 7.94 µM (inactive); in test [6] it was > 2 µM (inactive). For the same compound, the Ki was 79.4 nM (active) in test [7]; 1 µM (active) in test [8]; > 2 µM (inactive) in [9]; > 7.94 µM (inactive) in [10]; 3.16 µM (active) in test [11]; > 3.98 µM (inactive) in [12]. In addition, the values for the inhibitory constant (Ki) in test [13] and in test [14] were 158 nM (active) and 2 nM (active), respectively.

As usually defined, the IC50 is the concentration at which inhibition is half-maximal. On to `Cc1ccc(-n2sc3ccccc3c2=O)cc1`, for which the IC50 in test [15] is 30.1 µM (inactive); in [16], 2.64 µM (active).

The AC50 is the concentration at which the activity in the assay is half-maximal. Turning to `N/C(=N\N=C/c1ccc(-c2ccc(O)c(C(=O)O)c2)o1)N[N+](=O)[O-]`, the AC50 in test [17] was 7.94 µM (inconclusive).

For `CC(=O)N(/N=C1\Sc2ccccc2C1=O)c1ccccc1C`, the 50% inhibitory concentration (IC50) in test [18] was 7.4 µM (active); in [19], 8.34 µM (active).

The term EC50 denotes the concentration needed to bring the measured effect to its halfway point. Turning to `CCCC(=O)NC(c1ccc(Cl)cc1)c1ccc2cccnc2c1O` (stereo not given), the 50% effective concentration (EC50) in [20] was 18 µM (active).
